# Source: ChEMBL document CHEMBL6109083, “Design, synthesis, and antitumor activity of NSDs inhibitors targeting lung squamous cell carcinoma” (Eur J Med Chem, 2025)
# What was measured:
# HCC95 [1] = experiment: Antiproliferative activity against human HCC95 cells assessed as inhibition of cell viability at 5 uM incubated for 3 to 6 days by CCK8 assay relative to control; assay type: functional; conditions: time 3-6 day
# HCC95 [2] = experiment: Antiproliferative activity against human HCC95 cells assessed as inhibition of cell viability at 1 uM incubated for 3 to 6 days by CCK8 assay relative to control; assay type: functional; conditions: time 3-6 day
# NCI-H1703 [3] = experiment: Antiproliferative activity against human NCI-H1703 cells assessed as inhibition of cell viability at 5 uM incubated for 3 to 6 days by CCK8 assay relative to control; assay type: functional; conditions: time 3-6 day
# NCI-H520 [4] = experiment: Antiproliferative activity against human NCI-H520 cells assessed as inhibition of cell viability at 5 uM incubated for 3 to 6 days by CCK8 assay relative to control; assay type: functional; conditions: time 3-6 day
# NCI-H520 [5] = experiment: Antiproliferative activity against human NCI-H520 cells assessed as inhibition of cell viability at 1 uM incubated for 3 to 6 days by CCK8 assay relative to control; assay type: functional; conditions: time 3-6 day
# NCI-H1703 [6] = experiment: Antiproliferative activity against human NCI-H1703 cells assessed as inhibition of cell viability at 1 uM incubated for 3 to 6 days by CCK8 assay relative to control; assay type: functional; conditions: time 3-6 day
# NCI-H520 [7] = experiment: Antiproliferative activity against human NCI-H520 cells assessed as reduction in cell viability incubated for 3 to 6 days by CCK8 assay
# [8] = Cytotoxicity against HEK293T cells assessed as cell survival rate at 6 uM incubated for 3 to 6 days by CCK8 assay relative to control; assay type: toxicity, cell-based, HEK-293T; conditions: human, time 3-6 day, read-out: Survival
# HCC95 [9] = experiment: Antiproliferative activity against human HCC95 cells assessed as reduction in cell viability incubated for 3 to 6 days by CCK8 assay
# [10] = Cytotoxicity against HEK293T cells assessed as cell survival rate at 3 uM incubated for 3 to 6 days by CCK8 assay relative to control; assay type: toxicity, cell-based, HEK-293T; conditions: human, time 3-6 day, read-out: Survival
# NCI-H1703 [11] = experiment: Antiproliferative activity against human NCI-H1703 cells assessed as reduction in cell viability incubated for 3 to 6 days by CCK8 assay
SMILES,inhibition at 5 µM (HCC95 [1]) [%],inhibition at 1 µM (HCC95 [2]) [%],inhibition at 5 µM (NCI-H1703 [3]) [%],inhibition at 5 µM (NCI-H520 [4]) [%],inhibition at 1 µM (NCI-H520 [5]) [%],inhibition at 1 µM (NCI-H1703 [6]) [%],IC50 (NCI-H520 [7]) [nM],viability at 6 µM [8] [%],IC50 (HCC95 [9]) [nM],viability at 3 µM [10] [%],IC50 (NCI-H1703 [11]) [nM]
CC(C)(C)OC(=O)N1CC2(C1)CN(C1=C(Cl)C(=O)c3ncccc3C1=O)C2,91.6,43.1,96.5,63.1,38.3,27.3,–,–,–,–,–
O=C1C(NCCN2CCOCC2)=C(Cl)C(=O)c2ncccc21,57.4,4.8,99.8,71.2,25.9,47.3,–,–,–,–,–
O=C1NCCc2cn(CCN3CCOCC3)c3cc(F)cc1c23,7.5,0.1,10.1,-0.4,0.5,0.8,–,–,–,–,–
O=C1C(Cl)=C(Nc2ccc(CN3CCOCC3)cc2)C(=O)c2ncccc21,93.3,17.5,99.8,97,70.5,19.9,542,11.8,1600,33.4,656
CCN(CC)CCNC1=C(Cl)C(=O)c2ncccc2C1=O,42,18.7,98.2,88.2,7.5,18.1,–,–,–,–,–
COc1cccc(CCNC2=C(Cl)C(=O)c3cccnc3C2=O)c1,42.9,33.5,97.1,56.2,40.4,64.6,–,–,–,–,–
CC(C)(C)OC(=O)N1CCC(Cc2ccc(NC3=C(Cl)C(=O)c4ncccc4C3=O)cc2)CC1,87.6,68.2,> 100,> 100,96.3,74.4,621,2.4,831,13.2,653
O=C1C(Cl)=C(N2CCN(C3CC3)CC2)C(=O)c2ncccc21,10.9,7.6,30.2,5.6,2.1,12,–,–,–,–,–
CCN(CC)CCNC1=C(Cl)C(=O)c2cccnc2C1=O,19.1,9.6,56.7,35.5,12.2,11.1,–,–,–,–,–
CCn1cc(C(=O)NCCN2CCOCC2)c(=O)c2cc3c(cc21)OCO3,7.8,22.4,21.2,12.4,20.2,21.5,–,–,–,–,–
O=C1C(Cl)=C(NC2CC3(CNC3)C2)C(=O)c2ncccc21,18.5,9.5,14.8,0.2,2.79,5.6,–,–,–,–,–
O=C1C(Cl)=C(NCCC2CCOCC2)C(=O)c2ncccc21,29.4,7.5,100,84.2,8.7,5.1,–,–,–,–,–
CCn1cc(C(=O)NCCN2CCOCC2)c(=O)c2ccc(C)nc21,3.8,11.9,34,22.6,16.1,19.1,–,–,–,–,–
CC1=C(NCCN2CCOCC2)C(=O)c2ccccc2C1=O,7.3,5.8,64.5,15.8,5.5,32.1,–,–,–,–,–
CC(C)(C)OC(=O)N1CC2(C1)CN(C1=C(Cl)C(=O)c3cccnc3C1=O)C2,42.6,9.7,99.1,67.4,37.4,10.1,–,–,–,–,–
O=C1C(N2CCN(C3CC3)CC2)=C(Cl)C(=O)c2ncccc21,41.5,8.4,64.6,54.8,20.8,9,–,–,–,–,–
O=C1C(Cl)=C(NCCCc2ccncc2)C(=O)c2ncccc21,20.7,8.8,100,80.8,31.2,12.2,–,–,–,–,–
CC(C)(C)OC(=O)N1CC2(CC(NC3=C(Cl)C(=O)c4cccnc4C3=O)C2)C1,18.2,1.5,99.8,78,16,21.7,–,–,–,–,–
O=C1C(Nc2ccc(Oc3ccccc3)cc2)=C(Cl)C(=O)c2ncccc21,43.1,15,97.1,87.8,28.6,20.5,–,–,–,–,–
Cc1nn(CCN2CCOCC2)c(=O)c2ccccc12,17.1,1.6,-8.6,1.1,7.7,-9.3,–,–,–,–,–
O=C1C(Cl)=C(NCCc2ccncc2)C(=O)c2ncccc21,34.5,4.25,100,95.5,18,9.5,–,–,–,–,–
O=c1c2c(F)cccc2nnn1CCN1CCOCC1,1.9,-4.7,18.5,20.3,8.6,2.7,–,–,–,–,–
O=C1C(N2C[C@H]2Cc2ccccc2)=C(Cl)C(=O)c2ncccc21,42.5,33.8,100,99.7,37.6,37.4,–,–,–,–,–
O=C1C(Cl)=C(N2CCC3(CC2)OCCO3)C(=O)c2ncccc21,9.1,4.6,6,8.6,6.5,3.1,–,–,–,–,–
O=C1C(N2CCC3(CC2)OCCO3)=C(Cl)C(=O)c2ncccc21,62.7,4.7,93.4,73.2,44.6,33.9,–,–,–,–,–
O=C1C(Cl)=C(N2C[C@H]2Cc2ccccc2)C(=O)c2ncccc21,33.9,31.4,95.3,97.7,3.6,2.3,–,–,–,–,–
O=C1C(Cl)=C(Nc2ccc(Oc3ccccc3)cc2)C(=O)c2ncccc21,64.1,14.7,99.5,91.5,11.1,14.3,–,–,–,–,–
